Where a SMILES comes first, the peptide text is derived from it. [ ]: non-standard residue; d: D form. Nle = CCCC[C@H](N)C(=O)O
What was measured:
[1] = system: unfolded protein response (UPR); test: Immunoblot analysis of UPR markers (CHOP, PERK, IRE1α, XBP-1) in macrophages; conditions: 58035 alone, 5 h (FIG. 16B, lane 2)
Description: For detection of PERK, nuclei-free cell extracts were immunoprecipitated with anti-PERK antiserum and then immunoblotted, while for detection of ATF-4 and CHOP, immunoblots were performed on nuclear extracts. Lamin B, a nuclear protein, was used as the loading control.
Immunoprecipitation and immunoblot detection for IRE1α and PERK were conducted as described by Harding et al. (35). Immunoblot analyses of XBP-1, ATF4, and CHOP were carried out as described previously (36,38) with minor modifications. Briefly, cells were lysed in RIPA buffer to prepare whole-cell lysates or to prepare nuclei by centrifugation. The whole-cell lysates or nuclei were resuspended in 2×SDS-PAGE loading buffer and incubated at 95° C. for 10 min. Whole cell (100 μg) or nuclear lysates (20 μg) were electrophoresed on 4-20% gradient SDS-PAGE gels and electrotransferred to 0.22-μm nitrocellulose membrane using a Bio-Rad mini-transfer tank. After incubation with primary antibodies, the protein bands were detected with HRP-conjugated secondary antibodies (Bio-Rad) and ECL (Amersham Pharmacia Biotech). The membranes were reprobed with an anti-β-actin monoclonal antibody or an anti-lamin B serum to control for differences in loading.

[2] = system: ABCA1-mediated cholesterol efflux; test: 3H-cholesterol efflux to apoA-I from free cholesterol-loaded macrophages; format: cell-based, mouse; conditions: for cholesterol efflux to apoA-I from FC-loaded NPC+/− macrophages: 200 μM, 18 h apoA-1 incubation (FIG. 9D)
Description: Peritoneal macrophages from C57 mice were incubated for 5 h with 100 μg/ml ^3H-cholesterol-labeled acetyl-LDL in DMEM, 0.2% BSA, in the presence of 10 μg/ml 58035.
Acetyl-LDL (800 μg) was incubated with 10 μCi ^3H-cholesterol for 30 min at 37° C., followed by addition of 8 ml of DMEM, 0.2% BSA. The macrophages were incubated with this medium for 5 h, washed 3 times with PBS, and then incubated with DMEM, 0.2% BSA for 15 min at 37° C. After washing with PBS, the macrophages were incubated with DMEM, 0.2% BSA, containing either 15 μg/ml apoAI or 20 μg/ml HDL2. At the indicated time points, 100 μl of media was removed and centrifuged for 5 min at 14,000 rpm to pellet cellular debris. The radioactivity in this fraction of media was quantitated by liquid scintillation counting. After the last time point, the remainder of the media was removed, and the cells were dissolved in 0.5 ml of 0.1 N NaOH containing 0.5% sodium dodecylsulfate (5 h at room temperature). A 100 μl-aliquot of the cell lysate was counted, and the percent efflux was calculated as (media cpm)[…](cell +media cpm)×100. Total protein in the cell lysate was determined using the Bio-Rad DC protein assay kit. Note that there was no statistical difference in cellular cpm or protein between cholesteryl ester- and free cholesterol-loaded macrophages.

[3] = system: ABCA1 protein; test: ABCA1 immunoblot of total and cell-surface protein in cholesterol-loaded macrophages; format: cell-based, mouse; conditions: for decrease in ABCA1 protein in FC-loaded macrophages: calpeptin 40 μM, PD150606 25 μM (data not shown); for decrease in ABCA1 protein in free cholesterol-loaded macrophages: 50 μM
Description: Macrophages were pre-incubated for 14 h with 50 μg/ml acetyl-LDL in DMEM, 0.2% BSA, in the absence (CE) or presence (FC) of 58035. The cells were then incubated for 5 h with 100 μg/ml acetyl-LDL in DMEM, 0.2% BSA, in the absence or presence of 58035, respectively, with no further additions (Control) or in the presence of 10 μg/ml cycloheximide, 50 μM ALLN, or 50 μM lactacystin as indicated. Aliquots of cell lysates were then assayed for ABCA1 and β-actin protein by immunoblot analysis.
Macrophages were pre-incubated for 14 h with 50 μg/ml acetyl-LDL in DMEM, 0.2% BSA, in the absence (CE) or presence (FC) of 58035. […] Aliquots of total cell protein (top panel) or cell-surface protein (bottom panel) were then subjected to immunoblot analysis for ABCA1 and the standards β-actin or β1-integrin.
Macrophage monolayers in 35-mm dishes were washed with ice-cold PBS 3 times and then incubated with ice-cold PBS containing 0.5 mg/ml NHS—SS-biotin (Pierce) for 30 minutes at 4° C. After washing 5 times with ice-cold PBS containing 20 mM Tris-HCl, pH 8.0, the cells were scraped into PBS and pelleted by centrifugation. The pelleted macrophages were lysed in 50 μl RIPA buffer (0.5% sodium deoxycholate, 0.1% SDS, 1% Triton X-100, 20 mM Tris, 150 mM NaCl, and 5 mM EDTA, pH 8) containing 1 mM PMSF. […] of the lysate were subjected directly to 4-20% gradient SDS-polyacrylamide gel electrophoresis (SDS-PAGE) for determination of total ABCA1. The rest of the cell lysate was affinity-purified to isolate biotinylated proteins. Briefly, the cell lysates were diluted to 150 μl in RIPA buffer and incubated with 50 μl immobilized streptavidin agarose (Pierce), which was pre-washed three times with RIPA buffer at 0° C. for 2 h with gentle shaking. The agarose was pelleted by centrifugation using a microcentrifuge at 5,000 rpm for 2 min; the pellet was resuspended in 1 ml RIPA buffer, and the process was repeated 5 times. The agarose was resuspended 30 μl SDS-PAGE loading buffer containing 330 mM β-mercaptoethanol at 37^6C for 15 min and subjected to SDS-PAGE as above. ABCA1 and β-integrin were detected by Western blot using anti-ABCA1 and anti-β-integrin anti-sera. The blots were reprobed with anti-β-actin antibody, which detected no actin signal, thus verifying that no cytosolic protein was biotinylated by the procedure.
Peritoneal macrophages were lysed in RIPA buffer containing 1 mM PMSF. Nuclei were removed by centrifugation at 3000×g for 10 min at 4° C. […] For Western blot detection of ABCA1, anti-ABCA1 antiserum was used. Signals were detected using HRP-conjugated secondary anti-bodies (Bio-Rad) and ECL (Amersham Pharmacia Biotech). The membranes were reprobed with anti-β actin monoclonal antibody or anti-β1-integrin anti-serum for the proper internal controls. The relative intensities of the bands were determined by densitometry.

[4] = system: ABCA1 transporter activity (phospholipid efflux to apoA-I); test: 3H-phospholipid efflux to apoA-I from free cholesterol-loaded macrophages; format: cell-based, mouse; conditions: 15 min at 37° C.
Description: Aliquots of free cholesterol-loaded cells were incubated for 15 min at 37° C. in the absence or presence of 0.5% or 0.2% […] (CD). This treatment removes about 30% of total cellular cholesterol. All cells were then chased with media containing 15 μg/ml apoA-I for 3.33 h and phospholipid efflux was measured as in FIG. 6C.
Macrophages were labeled with ^3H-choline (5 μCi/ml) in DMEM, 10% FBS, for 24 h. After washing three times with PBS, the macrophages were incubated with 100 μg/ml acetyl-LDL+58035 in DMEM, 0.2% BSA, for 5 h. The cells were then incubated with 15 μg/ml apoA-1 in DMEM, 0.2% BSA, for the indicated time periods. ^3H-choline-containing phospholipids in aliquots of the medium were extracted in chloroform:methanol (2:1, v/v), and those remaining in the cells in hexane:isopropyl alcohol (3:2, v/v). The radioactivity was measured by scintillation counting.

CCCCCCCCCC[Si](C)(C)CCC(=O)NC(Cc1ccc(C)cc1)c1ccccc1 (stereo not shown) [compound 58035, 3-[decyldimethylsilyl]-N-[2-(4-methylphenyl)-1-phenylethyl] propanamide]
PERK activation in macrophages [1]: partially activate PERK

[Na+].[Na+].[Na+].[O]=[V]([O-])([O-])[O-] [ortho-vanadate, sodium orthovanadate]
cholesterol efflux to apoA-I from FC-loaded NPC+/− macrophages [2]: effectively blocked

C[C@@H]1C[C@@H]([C@H](O)CC2CC(=O)NC(=O)C2)C(=O)[C@@H](C)C1 [cycloheximide]
decrease in ABCA1 protein in free cholesterol-loaded cells ([3]; 10 μg/ml cycloheximide, 5 h (FIG. 8B)): insensitive

COc1ccc(Cl)cc1C(=O)NCCc1ccc(S(=O)(=O)NC(=O)NC2CCCCC2)cc1 [glyburide]
cholesterol efflux to apoA-I from FC-loaded NPC+/− macrophages [2]: effectively blocked

CCCC[C@@H](C=O)NC(=O)[C@H](CC(C)C)NC(=O)OCc1ccccc1 [calpeptin]
decrease in ABCA1 protein in FC-loaded macrophages [3]: did not affect the decrease in ABCA1

CC(=O)N[C@@H](CSC(=O)[C@]1([C@@H](O)C(C)C)NC(=O)[C@H](C)[C@@H]1O)C(=O)O [lactacystin]
decrease in ABCA1 protein in free cholesterol-loaded macrophages ([3]; 5 h (FIG. 8B)): blocked the decrease in ABCA1

CCCC[C@@H](C=O)NC(=O)[C@H](CC(C)C)NC(=O)[C@H](CC(C)C)NC(C)=O [ALLN] (Ac-Leu-Leu-[Nle]-aldehyde)
decrease in ABCA1 protein in free cholesterol-loaded macrophages ([3]; 5 h (FIG. 8B)): blocked the decrease in ABCA1

CN(C)CCCN1c2ccccc2CCc2ccccc21 [imipramine]
induction of cholesterol efflux to ApoA-1 ([2]; FC-loaded macrophages (FIGS. 11A, 11B)): marked ability to induce cholesterol efflux to ApoA-1 | restoration of ABCA1-dependent efflux ([2]; optimal low doses, FC-loaded macrophages (FIG. 12A)): restored ABCA1-dependent efflux | ABCA1 protein expression in free cholesterol-loaded cells ([3]; low concentrations): markedly enhance

methyl-β-cyclodextrin
defect in phosphatidylcholine efflux to apoA-I of free cholesterol-loaded cells ([4]; 0.5% or 0.2% (FIG. 6E)): reversed | removal of total cellular cholesterol ([4]; 0.5% or 0.2%, FC-loaded cells): about 30%

O=C(O)/C(S)=C/c1ccc(I)cc1 [PD150606]
decrease in ABCA1 protein in FC-loaded macrophages [3]: did not affect the decrease in ABCA1

Reference: patent publication US20040259853A1, “Methods for preventing acute clinical vascular events in a subject” (The Trustees of Columbia University, priority 2000, published 2004)
